Test results published in ChEMBL document CHEMBL5126544, “Recent results from non-basic glycosidase inhibitors: How structural diversity can inform general strategies for improving inhibition potency” (Eur J Med Chem, 2022).
One block for each compound: values may come before it.

Key:
[1] = Inhibition of alpha-glucosidase (unknown origin) using PNP glycoside as substrate preincubated for 30 mins followed by substrate addition and measured after 60 mins by spectrophotometric analysis
[2] = Inhibition of Bacillus stearothermophilus alpha-glucosidase type IV using p-nitrophenyl-alpha-D-glucopyranoside as substrate preincubated for 15 mins followed by substrate addition and measured after 35 mins by microtiter plate reader analysis; design: species or system Geobacillus stearothermophilus
[3] = Inhibition of alpha-amyloglucosidase (unknown origin) assessed as reduction in conversion of starch to glucose using starch as substrate preincubated with substrate for 20 mins followed by enzyme addition and measured after 30 mins
[4] = species on record: Homo sapiens; test: Potency index, ratio of acarbose IC50 to test compound IC50 for inhibition of alpha-glucosidase (unknown origin) using PNP glycoside as substrate preincubated for 30 mins followed by substrate addition and measured after 60 mins by spectrophotometric analysis; details: time 90.0 min
[5] = Inhibition of baker's yeast alpha-glucosidase using p-nitrophenyl-alpha-glucopyranoside as substrate by spectrophotometric analysis; design: species or system Saccharomyces cerevisiae
[6] = Inhibition of saccharomyces cerevisiae alpha-glucosidase using PNPG as substrate preincubated for 2 mins followed by substrate addition for 15 mins by microplate reader analysis
[7] = Inhibition of alpha-glucosidase (unknown origin) using p-nitrophenyl-alpha-D-glucopyranoside as substrate preincubated for 10 mins followed by substrate addition and measured after 30 mins
[8] = Inhibition of Caldocellum-saccharolyticum […] using 4-nitrophenyl beta-d-glucopyranoside preincubated for 30 to 60 mins followed by substrate addition; design: species or system Caldicellulosiruptor saccharolyticus
[9] = Inhibition of baker's yeast alpha-glucosidase using PNP-G as substrate preincubated for 10 mins followed by substrate addition and measured after 20 mins; design: species or system Saccharomyces cerevisiae
[10] = Inhibition of baker's yeast alpha-glucosidase using PNPG as substrate preincubated for 10 mins followed by substrate addition and measured after 30 mins by microplate reader analysis; design: species or system Saccharomyces cerevisiae
[11] = test system: Saccharomyces cerevisiae; test: Inhibition of baker's yeast alpha-glucosidase at 1 uM using p-nitrophenyl-alpha-D-glucopyranoside as substrate preincubated for 30 mins followed by substrate addition and measured after 5 mins relative to control; details: time 35.0 min
[12] = Inhibition of saccharomyces cerevisiae alpha-glucosidase using PNP-G as substrate incubated for 20 mins
[13] = Inhibition of Bacillus stearothermophilus alpha-glucosidase using PNP-G as substrate incubated for 20 mins; design: species or system Geobacillus stearothermophilus
[14] = Inhibition of yeast alpha-glucosidase; design: species or system Saccharomyces cerevisiae
[15] = Inhibition of beta glucosidase (unknown origin); design: species or system Homo sapiens
[16] = Inhibition of saccharomyces cerevisiae alpha-glucosidase using PNP-G as substrate by spectrophotometric analysis
[17] = Inhibition of saccharomyces cerevisiae alpha-glucosidase using p-nitrophenyl-alpha-D-glucopyranoside as substrate preincubated for 15 mins followed by substrate addition and measured after 20 mins by spectrophotometric analysis
[18] = Inhibition of saccharomyces cerevisiae alpha-glucosidase using pNPG as substrate preincubated for 15 mins followed by substrate addition
[19] = test system: Rattus norvegicus; test: Hypoglycemic activity in Wistar rat assessed as reduction in postprandial blood glucose level at 10 mg/kg, po administered for 10 mins followed by sucrose challenge and measured after 30 mins post oral sucrose challenge; type: functional; design: scale not given: the % may be the effect or the level left; details: time 40 min
[20] = Inhibition of rat intestinal maltase using maltose as substrate incubated for 15 mins by spectometric analysis
[21] = Inhibition of rat intestinal sucrase using sucrose as substrate incubated for 15 mins by spectometric analysis
[22] = Inhibition of human alpha-fucosidase
[23] = Inhibition of rat intestinal maltase
[24] = Inhibition of almond beta-glucosidase using PNPG as substrate preincubated for 10 mins followed by substrate addition and measured after 20 mins by spectrophotometric analysis; design: species or system Prunus dulcis
[25] = Inhibition of recombinant Streptococcus pneumoniae NanB using MUNANA as substrate

- IC50 [1]: 38 µM
SMILES: Oc1ccccc1-c1nc2ccc(Br)cc2[nH]1

- IC50 [2]: 4.9 µM
SMILES: Oc1cc(O)cc(/C=C/c2cc(O)c(O)c3c2[C@H](c2cc(O)cc(O)c2)[C@@H](c2cc(O)c(O)c(O)c2)O3)c1

- IC50 [3]: 4 µM
SMILES: O=C1NC(=O)C(Cc2ccc(Nc3nc4ccccc4n3Cc3ccccc3)cc2)S1 (stereo not given)

- IC50 [1]: 8 µM
- Ratio IC50 [4]: 5
SMILES: Oc1ccc(-c2nc3ccc(Br)cc3[nH]2)cc1

- IC50 [5]: 280 µM
SMILES: CC(=O)NC[C@H]1N[C@H](CO)[C@@H](O)[C@@H]1O

- IC50 [6]: 195 µM
SMILES: C/C=C(\C)C(=O)NCCc1ccc(OCC=C(C)C)cc1

- IC50 [7]: 6 µM
SMILES: O=C1c2c(Cl)c(Cl)c(Cl)c(Cl)c2C(=O)N1CCc1ccccc1

SMILES: OC[C@@H]1[C@@H](O)[C@H](O)[C@@H](O)c2nccn21
- Ki [8]: 0.02 µM

- IC50 [3]: 5 µM
SMILES: O=C1NC(=O)C(Cc2ccc(CNc3nc4ccccc4n3Cc3ccccc3)cc2)S1 (stereo not given)

- IC50 [9]: 44 µM
SMILES: COc1ccc(/C=C/C(=O)O)cc1 [4-METHOXYCINNAMIC ACID]

- IC50 [10]: 8 µM
SMILES: Cc1cc2nc(-c3ccc(C(=O)N/N=C/c4cc(O)c(O)c(O)c4)cc3)[nH]c2cc1C

- IC50 [7]: 2 µM
SMILES: O=C1c2c(Cl)c(Cl)c(Cl)c(Cl)c2C(=O)N1CCCCc1ccccc1

- IC50 [6]: 4.6 µM
SMILES: COc1cc2ccc(=O)oc2cc1O [SCOPOLETIN]

- IC50 [1]: 38 µM
- IC50 [3]: 15 µM
- inhibition [11]: 56.5%
SMILES: C[C@H]1O[C@H](O[C@H]2[C@H](O)[C@@H](O)[C@@H](O[C@H]3[C@H](O)[C@@H](O)C(O)O[C@@H]3CO)O[C@@H]2CO)[C@H](O)[C@@H](O)[C@@H]1N[C@H]1C=C(CO)[C@@H](O)[C@H](O)[C@H]1O (stereo not given in full) [ACARBOSE]

- IC50 [12]: 0.9 µM
- IC50 [13]: 1.1 µM
SMILES: CCCCCCC1(CCCCCC)O[C@H]2Cc3c(O)cc(O)cc3O[C@@H]2c2cc(O)c(O)cc21

- IC50 [10]: 8 µM
SMILES: Cc1cc2nc(-c3ccc(C(=O)N/N=C/c4ccc(O)cc4O)cc3)[nH]c2cc1C

- IC50 [6]: 98 µM
SMILES: COC(=O)/C=C/c1ccc(OCC=C(C)C)c(OC)c1

- IC50 [14]: 2.6 µM
SMILES: OC[C@H]1OC(O)[C@H](O)[C@@H](O)[C@@H]1O (stereo not given in full) [DEXTROSE]

- Ki [15]: 0.004 µM
SMILES: O[C@H]1[C@@H](O)Cn2cc(CCc3ccccc3)nc2[C@@H]1O

- IC50 [3]: 9 µM
SMILES: Cn1c(Nc2ccc(CC3SC(=O)NC3=O)cc2)nc2ccccc21 (stereo not given)

- IC50 [12]: 1.2 µM
- IC50 [13]: 0.7 µM
SMILES: CC1(C)O[C@H]2Cc3c(O)cc(O)cc3O[C@@H]2c2cc(O)c(O)cc21

- IC50 [16]: 66 µM
SMILES: COc1ccc(-c2oc3cc(O[C@H]4O[C@H](CO)[C@@H](O)[C@H](O)[C@H]4O)c(OC)c(O)c3c(=O)c2O)cc1CCC(C)COC(C)=O (stereo not given in full)

- IC50 [17]: 10 µM
SMILES: NNC(=O)Cn1c(Cc2ccc(Cl)cc2Cl)nc2ccc([N+](=O)[O-])cc21

- IC50 [12]: 2.1 µM
SMILES: CCCCC1(CCCC)O[C@H]2Cc3c(O)cc(O)cc3O[C@@H]2c2cc(O)c(O)cc21

- Ki [8]: 0.00011 µM
SMILES: OC[C@@H]1[C@@H](O)[C@H](O)[C@@H](O)c2nc(CCc3ccccc3)cn21

- IC50 [18]: 5 µM
SMILES: Cc1cccc2nc(-c3ccccc3Cl)[nH]c12

- IC50 [10]: 8 µM
SMILES: COc1ccc(O)cc1/C=N/NC(=O)c1ccc(-c2nc3cc(C)c(C)cc3[nH]2)cc1

- IC50 [2]: 11 µM
SMILES: COc1cc([C@@H]2c3c(O)cc(O)cc3[C@@H]3[C@H]2CO[C@H]3c2ccc(O)c(O)c2)cc(OC)c1O
- Activity [19]: 10.2%

- IC50 [18]: 45 µM
SMILES: COc1ccc(O)c(-c2nc3cccc(C)c3[nH]2)c1

- IC50 [1]: 21 µM
SMILES: Brc1cccc(-c2nc3ccc(Br)cc3[nH]2)c1

- IC50 [18]: 34 µM
SMILES: Cc1cccc2nc(-c3ccccc3F)[nH]c12

- IC50 [6]: 102 µM
SMILES: C/C(=C\O)[C@@H]1OC(=O)[C@H]2O[C@@]23[C@@]1(C)CC[C@@H]1[C@@]2(CCC(=O)[C@]13C)COC(=O)C[C@@H]2O

- IC50 [7]: 3.5 µM
SMILES: O=C1c2c(Cl)c(Cl)c(Cl)c(Cl)c2C(=O)N1CCCCCc1ccccc1

- IC50 [1]: 38 µM
SMILES: COc1ccc(-c2nc3ccc(Br)cc3[nH]2)c(O)c1

- IC50 [2]: 19 µM
SMILES: Oc1cc(O)cc(/C=C/c2cc(O)c(O)c(O)c2)c1
- Activity [19]: 12.1%

- IC50 [7]: 7 µM
SMILES: O=C1c2c(Cl)c(Cl)c(Cl)c(Cl)c2C(=O)N1CCCCCCc1ccccc1

- IC50 [20]: 1350 µM
- IC50 [21]: 2490 µM
SMILES: Oc1cc(O)c2c(c1)O[C@H](c1ccc(O)c(O)c1)[C@@H](O)C2 [CIANIDANOL]

- IC50 [18]: 30 µM
SMILES: COc1ccc(-c2nc3cccc(C)c3[nH]2)c(O)c1

- IC50 [10]: 8 µM
SMILES: COc1ccc(/C=N/NC(=O)c2ccc(-c3nc4cc(C)c(C)cc4[nH]3)cc2)c(O)c1

- Ki [22]: 0.000105 µM
SMILES: C[C@@H]1N[C@H](CNC(=O)CCc2c[nH]c3ccccc23)[C@@H](O)[C@H](O)[C@@H]1O

- IC50 [23]: 1.6 µM
SMILES: OC[C@@H]1[C@@H](O)[C@H](O)C[S@@+]1C[C@@H](O)[C@@H](O)CO

- IC50 [18]: 45 µM
SMILES: Cc1cccc2nc(-c3ccccc3[N+](=O)[O-])[nH]c12

- IC50 [5]: 0.15 µM
- Ki [5]: 0.053 µM
SMILES: O=C(NC[C@H]1N[C@H](CO)[C@@H](O)[C@@H]1O)C1Cc2ccccc21 (stereo not given in full)

- IC50 [18]: 16 µM
SMILES: Cc1cccc2nc(-c3ccccc3O)[nH]c12

- Ki [22]: 0.00447 µM
SMILES: CC(=O)NC[C@H]1N[C@@H](C)[C@@H](O)[C@@H](O)[C@@H]1O

- IC50 [7]: 11 µM
SMILES: O=C1c2c(Cl)c(Cl)c(Cl)c(Cl)c2C(=O)N1Cc1ccccc1

- IC50 [2]: 23 µM
SMILES: Oc1cc(O)cc(/C=C/c2ccc(O)c(O)c2)c1 [PICEATANNOL]

- IC50 [14]: 10.4 µM
SMILES: O=c1c(-c2ccc(O)cc2)coc2cc(O)cc(O)c12 [GENISTEIN]

- IC50 [24]: 5 µM
SMILES: O[C@@H]1[C@H](O)Cn2c(nc3ccccc32)[C@@H]1O

- IC50 [1]: 25 µM
SMILES: CCCCOc1ccc(-c2nc3ccc(Br)cc3[nH]2)cc1

- IC50 [17]: 40 µM
SMILES: O=[N+]([O-])c1ccc2nc(Cc3ccc(Cl)cc3Cl)n(Cc3nnc(S)n3-c3ccccc3)c2c1

- IC50 [7]: 4.5 µM
SMILES: O=C1c2c(Cl)c(Cl)c(Cl)c(Cl)c2C(=O)N1CCCc1ccccc1

- IC50 [9]: 50 µM
SMILES: CCOC(=O)/C=C/c1ccc(OC)cc1 [4-METHOXY ETHYL CINNAMATE]

- IC50 [25]: 39 µM
SMILES: O=S(=O)(O)CCNCc1cccc(Cl)c1

- IC50 [18]: 25 µM
SMILES: Cc1cccc2nc(-c3ccc(O)c(O)c3)[nH]c12

- IC50 [23]: 0.042 µM
SMILES: O=[N+]([O-])c1ccccc1CO[C@@H](CO)[C@H](O)C[S+]1C[C@@H](O)[C@H](O)[C@H]1CO (single isomer, unassigned)

- IC50 [10]: 12 µM
SMILES: Cc1cc2nc(-c3ccc(C(=O)N/N=C/c4ccc(O)c(O)c4)cc3)[nH]c2cc1C

- IC50 [10]: 8 µM
SMILES: Cc1cc2nc(-c3ccc(C(=O)N/N=C/c4cccc(O)c4O)cc3)[nH]c2cc1C

- Ki [15]: 0.001 µM
SMILES: O[C@H]1[C@@H](O)Cn2ccnc2[C@@H]1O

- IC50 [3]: 9 µM
SMILES: Cn1c(NCc2ccc(CC3SC(=O)NC3=O)cc2)nc2ccccc21 (stereo not given)

- IC50 [2]: 8.3 µM
SMILES: Oc1ccc(/C=C/c2cc(O)cc3c2[C@H](c2cc(O)cc(O)c2)[C@@H](c2ccc(O)c(O)c2)O3)cc1 [SCIRPUSIN A]

- IC50 [2]: 6.5 µM
SMILES: COc1cc([C@@H]2c3c(O)cc(O)cc3[C@@H]3[C@H]2CO[C@H]3c2cc(O)c(O)c(O)c2)cc(OC)c1O

- IC50 [2]: 24 µM
SMILES: Oc1ccc(/C=C/c2cc(O)cc(O)c2)cc1 [RESVERATROL]

- IC50 [25]: 57 µM
SMILES: Cc1cccc(CNCCS(=O)(=O)O)c1

- IC50 [17]: 27 µM
SMILES: O=[N+]([O-])c1ccc2nc(Cc3ccc(Cl)cc3Cl)n(Cc3nnc(S)o3)c2c1

- IC50 [10]: 8 µM
SMILES: Cc1cc2nc(-c3ccc(C(=O)N/N=C/c4cc(O)ccc4O)cc3)[nH]c2cc1C
